Experimental data: ChEMBL document CHEMBL1201862, “PubChem BioAssay data set” (2004)
Calls of active or inactive are those of the source.

Experiments:
[1] = molecular target: T1, Aminopeptidase N (Plasmodium falciparum FcB1/Columbia, UniProt O96935); assay: P. falciparum M1AAP inhibitors, biochemical, fluorogenic H-Leu-NHMec substrate, 1536-well (AID 1445); set-up: species or system Plasmodium falciparum 3D7, 3D7
T1 sequence (O96935 whole entry): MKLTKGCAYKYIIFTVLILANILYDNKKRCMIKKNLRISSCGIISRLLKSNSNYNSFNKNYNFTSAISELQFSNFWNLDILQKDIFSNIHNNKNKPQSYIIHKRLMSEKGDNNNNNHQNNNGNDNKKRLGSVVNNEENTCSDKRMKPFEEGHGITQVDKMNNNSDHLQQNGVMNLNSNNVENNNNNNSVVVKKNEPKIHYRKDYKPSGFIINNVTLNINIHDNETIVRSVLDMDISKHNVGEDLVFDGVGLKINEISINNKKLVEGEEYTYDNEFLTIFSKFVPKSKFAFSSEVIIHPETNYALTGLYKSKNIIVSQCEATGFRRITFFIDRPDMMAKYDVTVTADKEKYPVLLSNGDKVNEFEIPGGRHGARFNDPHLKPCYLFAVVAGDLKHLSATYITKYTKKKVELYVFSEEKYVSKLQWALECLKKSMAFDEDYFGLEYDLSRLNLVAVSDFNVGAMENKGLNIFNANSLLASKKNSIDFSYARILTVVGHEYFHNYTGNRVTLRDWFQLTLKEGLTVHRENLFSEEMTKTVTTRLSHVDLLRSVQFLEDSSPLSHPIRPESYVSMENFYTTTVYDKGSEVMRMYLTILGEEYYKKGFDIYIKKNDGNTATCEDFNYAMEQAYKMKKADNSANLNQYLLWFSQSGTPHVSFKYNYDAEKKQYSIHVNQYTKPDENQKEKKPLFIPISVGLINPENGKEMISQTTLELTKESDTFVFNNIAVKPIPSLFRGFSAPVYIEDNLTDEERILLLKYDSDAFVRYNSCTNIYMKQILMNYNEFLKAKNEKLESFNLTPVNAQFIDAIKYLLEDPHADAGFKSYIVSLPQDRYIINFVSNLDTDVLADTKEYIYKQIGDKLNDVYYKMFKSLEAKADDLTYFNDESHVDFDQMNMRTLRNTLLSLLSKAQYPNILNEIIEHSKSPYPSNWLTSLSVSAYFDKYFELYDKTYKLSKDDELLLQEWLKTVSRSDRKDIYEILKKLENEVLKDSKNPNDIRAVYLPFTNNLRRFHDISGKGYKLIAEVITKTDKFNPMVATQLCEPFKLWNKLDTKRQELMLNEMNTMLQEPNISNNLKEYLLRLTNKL

[2] = molecular target: Voltage-dependent T-type calcium channel subunit alpha-1H (Homo sapiens, UniProt O95180); format: functional;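 further: channel activity triggered by adding a high calcium stimulation buffer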
Voltage-dependent T-type calcium channel subunit alpha-1H, sequence (O95180 whole entry): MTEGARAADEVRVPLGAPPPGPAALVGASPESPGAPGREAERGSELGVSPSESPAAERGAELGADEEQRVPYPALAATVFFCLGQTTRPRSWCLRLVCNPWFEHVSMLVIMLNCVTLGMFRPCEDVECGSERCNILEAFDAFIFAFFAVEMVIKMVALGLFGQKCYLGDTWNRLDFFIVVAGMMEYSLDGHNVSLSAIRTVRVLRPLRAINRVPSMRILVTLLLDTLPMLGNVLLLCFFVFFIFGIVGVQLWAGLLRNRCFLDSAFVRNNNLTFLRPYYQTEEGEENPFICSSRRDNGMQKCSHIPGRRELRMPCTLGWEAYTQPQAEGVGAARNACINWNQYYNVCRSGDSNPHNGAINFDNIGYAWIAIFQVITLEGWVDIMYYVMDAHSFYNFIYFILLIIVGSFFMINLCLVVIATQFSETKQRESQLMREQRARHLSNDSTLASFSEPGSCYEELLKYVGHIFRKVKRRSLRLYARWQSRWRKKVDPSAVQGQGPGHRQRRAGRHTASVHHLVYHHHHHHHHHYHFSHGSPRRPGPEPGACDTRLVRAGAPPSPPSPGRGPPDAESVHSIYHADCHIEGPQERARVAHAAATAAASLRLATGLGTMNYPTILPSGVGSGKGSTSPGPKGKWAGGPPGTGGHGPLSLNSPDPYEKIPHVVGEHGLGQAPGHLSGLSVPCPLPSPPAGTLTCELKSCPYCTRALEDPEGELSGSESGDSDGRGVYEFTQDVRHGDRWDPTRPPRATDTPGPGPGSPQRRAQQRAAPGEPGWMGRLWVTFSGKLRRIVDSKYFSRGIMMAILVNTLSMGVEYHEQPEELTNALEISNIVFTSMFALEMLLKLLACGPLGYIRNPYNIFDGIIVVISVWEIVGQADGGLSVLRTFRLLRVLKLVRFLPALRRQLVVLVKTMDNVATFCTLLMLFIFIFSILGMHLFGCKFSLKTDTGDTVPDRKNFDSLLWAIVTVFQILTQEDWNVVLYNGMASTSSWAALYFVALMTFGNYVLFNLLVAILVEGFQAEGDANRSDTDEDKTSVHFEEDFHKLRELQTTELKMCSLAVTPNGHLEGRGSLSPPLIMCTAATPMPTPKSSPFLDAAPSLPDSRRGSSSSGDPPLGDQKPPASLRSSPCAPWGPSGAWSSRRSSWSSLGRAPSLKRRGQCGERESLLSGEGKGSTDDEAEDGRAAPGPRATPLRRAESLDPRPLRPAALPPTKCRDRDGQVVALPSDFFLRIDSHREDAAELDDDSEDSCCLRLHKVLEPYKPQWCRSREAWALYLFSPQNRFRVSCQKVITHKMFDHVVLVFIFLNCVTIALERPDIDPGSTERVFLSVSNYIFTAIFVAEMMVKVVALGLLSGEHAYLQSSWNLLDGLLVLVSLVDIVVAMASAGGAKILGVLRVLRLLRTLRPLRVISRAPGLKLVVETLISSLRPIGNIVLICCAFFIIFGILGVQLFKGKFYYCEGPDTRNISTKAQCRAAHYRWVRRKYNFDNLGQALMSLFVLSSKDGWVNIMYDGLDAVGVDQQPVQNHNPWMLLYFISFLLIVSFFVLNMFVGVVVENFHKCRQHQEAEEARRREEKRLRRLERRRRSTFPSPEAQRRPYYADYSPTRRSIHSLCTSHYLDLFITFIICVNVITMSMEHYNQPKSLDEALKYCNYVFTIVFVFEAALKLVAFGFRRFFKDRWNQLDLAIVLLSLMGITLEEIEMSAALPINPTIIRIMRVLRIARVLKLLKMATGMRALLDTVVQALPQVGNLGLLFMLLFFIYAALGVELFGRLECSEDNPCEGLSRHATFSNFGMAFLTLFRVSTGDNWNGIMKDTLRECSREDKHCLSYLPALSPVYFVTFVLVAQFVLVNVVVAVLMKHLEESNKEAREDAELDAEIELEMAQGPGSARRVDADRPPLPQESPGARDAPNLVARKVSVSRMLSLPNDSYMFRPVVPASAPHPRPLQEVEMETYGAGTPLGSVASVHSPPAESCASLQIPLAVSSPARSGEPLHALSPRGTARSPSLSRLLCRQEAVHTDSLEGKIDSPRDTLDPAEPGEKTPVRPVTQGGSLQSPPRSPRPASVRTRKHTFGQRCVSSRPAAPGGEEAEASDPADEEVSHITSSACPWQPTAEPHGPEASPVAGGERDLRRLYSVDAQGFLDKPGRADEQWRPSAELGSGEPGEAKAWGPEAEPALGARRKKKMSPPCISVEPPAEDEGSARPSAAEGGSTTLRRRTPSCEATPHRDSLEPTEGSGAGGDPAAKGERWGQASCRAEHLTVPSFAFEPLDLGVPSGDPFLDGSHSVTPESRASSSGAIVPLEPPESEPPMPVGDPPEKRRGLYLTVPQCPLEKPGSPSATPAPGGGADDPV

[3] = cytotoxicity in HEK-293T cells, dose response, cytotoxicity control for BCR NF-kB inhibitor project, luminescence, B-cell screen hits (AID 489021); format: functional, cell-based;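 further: HEK-293T cells carrying an NF-kB luciferase reporter; cells exposed to compound for about 14 hours before viability readout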
[4] = A cytotoxicity screen of small molecule inhibitors of the PhoP region in Salmonella typhi identified in the primary screen. [Related pubchem assays: 1850, 1864, 1985 ]; format: functional
[5] = molecular target: T2, Estrogen receptor beta (Homo sapiens, UniProt Q92731); assay: ERβ–SRC-3 coactivator interaction inhibitors, confirmation, orthogonal assay, biochemical, ELISA, streptavidin-HRP readout (AID 1060)
T2 sequence (Q92731 whole entry): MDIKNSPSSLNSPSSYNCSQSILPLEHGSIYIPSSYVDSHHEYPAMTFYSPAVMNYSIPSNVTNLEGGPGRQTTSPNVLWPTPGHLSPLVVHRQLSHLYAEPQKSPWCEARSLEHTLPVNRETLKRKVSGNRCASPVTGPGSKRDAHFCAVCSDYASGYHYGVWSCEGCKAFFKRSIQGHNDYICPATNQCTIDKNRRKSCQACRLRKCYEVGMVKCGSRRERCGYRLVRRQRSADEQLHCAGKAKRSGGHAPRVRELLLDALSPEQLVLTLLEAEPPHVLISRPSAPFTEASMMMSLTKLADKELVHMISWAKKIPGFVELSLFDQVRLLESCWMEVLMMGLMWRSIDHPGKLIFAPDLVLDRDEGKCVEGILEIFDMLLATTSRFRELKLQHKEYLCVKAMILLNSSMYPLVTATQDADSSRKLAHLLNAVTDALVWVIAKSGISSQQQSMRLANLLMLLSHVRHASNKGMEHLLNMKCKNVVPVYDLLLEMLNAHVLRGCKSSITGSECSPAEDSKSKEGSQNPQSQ

[6] = molecular target: T3, Mannose-6-phosphate isomerase (Homo sapiens, UniProt P34949); assay: human PMI inhibitors, high substrate, primary screen, biochemical, fluorescence intensity, high mannose 6-phosphate (AID 1220)
T3 sequence (P34949 whole entry): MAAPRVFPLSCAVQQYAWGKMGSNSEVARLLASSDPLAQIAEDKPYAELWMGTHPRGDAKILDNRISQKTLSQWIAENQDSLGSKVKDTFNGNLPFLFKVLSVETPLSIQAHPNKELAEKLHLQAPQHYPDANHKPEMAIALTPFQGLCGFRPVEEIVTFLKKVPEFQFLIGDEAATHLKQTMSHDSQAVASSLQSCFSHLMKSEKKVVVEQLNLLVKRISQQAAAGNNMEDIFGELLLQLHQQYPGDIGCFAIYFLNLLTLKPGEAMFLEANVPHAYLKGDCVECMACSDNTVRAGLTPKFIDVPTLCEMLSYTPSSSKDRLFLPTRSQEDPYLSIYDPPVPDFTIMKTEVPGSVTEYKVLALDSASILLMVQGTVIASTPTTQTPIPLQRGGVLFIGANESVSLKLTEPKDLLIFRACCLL

[7] = molecular target: Eukaryotic translation initiation factor 4E (Mus musculus, UniProt P63073); assay: eIF4E–eIF4G protein interaction inhibitors, dose response, biochemical, TR-FRET (AID 855); format: functional;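 further: potency for disrupting eIF4E binding to eIF4GI seen as loss of FRET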
Eukaryotic translation initiation factor 4E, sequence (P63073 whole entry): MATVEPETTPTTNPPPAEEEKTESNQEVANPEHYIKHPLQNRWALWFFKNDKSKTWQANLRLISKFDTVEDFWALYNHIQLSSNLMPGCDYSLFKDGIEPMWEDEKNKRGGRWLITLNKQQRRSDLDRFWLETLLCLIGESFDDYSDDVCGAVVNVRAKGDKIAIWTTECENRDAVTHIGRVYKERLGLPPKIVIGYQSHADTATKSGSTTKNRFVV

[8] = NIH-3T3 fibroblast cytotoxicity, dose response, cytotoxicity control, cell-based, fluorescence, Alamar Blue, secondary assay (AID 2327); format: functional;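 further: NIH-3T3 mouse fibroblasts cultured with fluconazole at 8 µg/mL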
[9] = molecular target: ATP-dependent molecular chaperone HSP82 (Candida albicans (strain WO-1) (Yeast), UniProt C4YTQ8); assay: loss of DOC-induced GRE-beta-galactosidase reporter signal, dose response, Hsp90 inhibitor project, S. cerevisiae, luminescence (AID 2400); format: functional, cell-based;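 further: beta-galactosidase luminescence from glucocorticoid response element reporter as proxy for Hsp90 function; inhibitor potency where signal loss means Hsp90 inhibition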
ATP-dependent molecular chaperone HSP82, sequence (C4YTQ8 whole entry): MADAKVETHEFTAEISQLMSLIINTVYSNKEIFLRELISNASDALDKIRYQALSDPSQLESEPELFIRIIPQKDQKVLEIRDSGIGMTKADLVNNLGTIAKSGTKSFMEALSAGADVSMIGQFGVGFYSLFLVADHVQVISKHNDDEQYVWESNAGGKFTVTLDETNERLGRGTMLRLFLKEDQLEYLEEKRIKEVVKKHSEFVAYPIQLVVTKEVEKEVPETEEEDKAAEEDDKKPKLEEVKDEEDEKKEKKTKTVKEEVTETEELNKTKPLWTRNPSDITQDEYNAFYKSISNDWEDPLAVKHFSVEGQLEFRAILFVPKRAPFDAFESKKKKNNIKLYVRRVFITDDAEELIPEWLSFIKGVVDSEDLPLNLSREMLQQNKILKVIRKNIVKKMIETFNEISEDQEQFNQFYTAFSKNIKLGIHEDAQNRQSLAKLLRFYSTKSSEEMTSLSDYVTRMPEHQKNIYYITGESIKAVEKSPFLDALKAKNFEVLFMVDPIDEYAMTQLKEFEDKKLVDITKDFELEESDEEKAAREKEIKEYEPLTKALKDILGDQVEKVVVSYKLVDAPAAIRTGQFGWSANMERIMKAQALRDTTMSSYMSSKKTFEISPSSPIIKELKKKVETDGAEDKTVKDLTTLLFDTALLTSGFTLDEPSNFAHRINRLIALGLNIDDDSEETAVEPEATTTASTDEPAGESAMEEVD

[10] = C. albicans growth with fluconazole, confirmation, fluorescence, retest (AID 2467); format: functional, cell-based
[11] = molecular target: T4, Serine/threonine-protein phosphatase (Candida dubliniensis (strain CD36 / CBS 7987 / NCPF 3949 / NRRLY-17841) (Yeast), UniProt B9W6M3); assay: calcineurin pathway inhibitors in yeast reporter, dose response, S. cerevisiae, CDRE-lacZ, luminescence, secondary (AID 2388); format: functional, cell-based;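 further: yeast reporter cells carrying a calcineurin-responsive lacZ construct stimulated with calcium chloride; luminescent beta-galactosidase reporter signal in whole cells rather than isolated phosphatase activity; potency for inhibition where a drop in reporter signal means calcineurin blockade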
T4 sequence (B9W6M3 whole entry): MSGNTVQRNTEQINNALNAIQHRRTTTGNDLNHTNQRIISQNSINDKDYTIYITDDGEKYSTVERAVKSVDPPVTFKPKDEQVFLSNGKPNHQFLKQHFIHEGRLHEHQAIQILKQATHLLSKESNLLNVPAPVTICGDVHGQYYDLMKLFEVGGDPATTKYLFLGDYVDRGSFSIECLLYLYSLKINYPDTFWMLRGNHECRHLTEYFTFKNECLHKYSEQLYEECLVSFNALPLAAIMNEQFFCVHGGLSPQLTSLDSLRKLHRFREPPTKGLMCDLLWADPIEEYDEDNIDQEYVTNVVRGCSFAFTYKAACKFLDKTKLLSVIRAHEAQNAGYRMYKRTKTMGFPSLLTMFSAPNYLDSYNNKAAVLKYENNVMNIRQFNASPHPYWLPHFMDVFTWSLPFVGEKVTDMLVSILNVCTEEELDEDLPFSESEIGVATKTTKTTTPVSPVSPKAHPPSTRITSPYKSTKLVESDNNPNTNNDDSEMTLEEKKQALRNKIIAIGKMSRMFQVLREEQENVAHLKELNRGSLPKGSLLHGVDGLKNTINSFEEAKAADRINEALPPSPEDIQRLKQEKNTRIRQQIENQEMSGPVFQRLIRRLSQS

[12] = molecular target: T5, Estrogen receptor (Homo sapiens, UniProt P03372);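 further: potency for inhibiting coactivator peptide recruitment to the receptor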
T5 sequence (P03372 whole entry): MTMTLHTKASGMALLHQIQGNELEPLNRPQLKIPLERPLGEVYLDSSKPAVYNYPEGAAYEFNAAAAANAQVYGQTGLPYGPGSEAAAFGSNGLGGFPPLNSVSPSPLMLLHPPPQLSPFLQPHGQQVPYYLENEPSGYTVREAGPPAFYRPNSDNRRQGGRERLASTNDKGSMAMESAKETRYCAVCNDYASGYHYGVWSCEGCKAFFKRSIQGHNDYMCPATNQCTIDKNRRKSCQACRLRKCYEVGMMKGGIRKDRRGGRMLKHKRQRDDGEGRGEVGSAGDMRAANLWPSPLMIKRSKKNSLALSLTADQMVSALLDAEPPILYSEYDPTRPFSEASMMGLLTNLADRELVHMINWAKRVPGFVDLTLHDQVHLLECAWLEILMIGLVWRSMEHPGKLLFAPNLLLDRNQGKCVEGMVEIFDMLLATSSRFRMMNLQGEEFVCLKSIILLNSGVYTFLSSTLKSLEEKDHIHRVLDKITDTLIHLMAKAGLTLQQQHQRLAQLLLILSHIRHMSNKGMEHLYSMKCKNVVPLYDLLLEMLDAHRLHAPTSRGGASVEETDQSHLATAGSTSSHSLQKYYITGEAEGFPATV

[13] = growth suppression of PTEN-null colon cells, dose response, cell-based, HCT116 PTEN knockout (AID 1047); format: functional;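 further: HCT116 colon tumor cells with PTEN knocked out; cells exposed to compound for 60 hours before readout; potency for loss of cell viability measured by luminescence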
[14] = growth suppression of beta-catenin-knockout colon cells, dose response, cell-based, HCT116, human colon tumor (AID 1045); format: functional;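 further: HCT116 colon tumor cells with beta catenin knocked out; cells exposed to compound for 60 hours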
[15] = molecular target: T2, Estrogen receptor beta
[16] = molecular target: FAD-linked sulfhydryl oxidase ALR (Homo sapiens, UniProt P55789); assay: inhibitors of human ALR sulfhydryl oxidase, dose response, biochemical, H2O2 detection, luminescence, cherry-pick (AID 493248)
FAD-linked sulfhydryl oxidase ALR, sequence (P55789 whole entry): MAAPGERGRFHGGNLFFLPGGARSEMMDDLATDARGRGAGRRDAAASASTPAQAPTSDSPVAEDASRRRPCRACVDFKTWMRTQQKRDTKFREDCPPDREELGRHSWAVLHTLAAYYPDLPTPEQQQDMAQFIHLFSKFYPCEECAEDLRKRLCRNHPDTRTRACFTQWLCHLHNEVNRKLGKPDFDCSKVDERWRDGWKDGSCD

[17] = cells; format: functional, cell-based
[18] = molecular target: T6, Trace amine-associated receptor 1 (Homo sapiens, UniProt Q96RJ0); assay: Counterscreen for agonists of the human trace amine associated receptor 1 (hTAAR1): Fluorescence-based cell-based high throughput dose response assay to identify hTAAR1 agonist that also desensitize TAAR1 receptor response.; format: functional
T6 sequence (Q96RJ0 whole entry): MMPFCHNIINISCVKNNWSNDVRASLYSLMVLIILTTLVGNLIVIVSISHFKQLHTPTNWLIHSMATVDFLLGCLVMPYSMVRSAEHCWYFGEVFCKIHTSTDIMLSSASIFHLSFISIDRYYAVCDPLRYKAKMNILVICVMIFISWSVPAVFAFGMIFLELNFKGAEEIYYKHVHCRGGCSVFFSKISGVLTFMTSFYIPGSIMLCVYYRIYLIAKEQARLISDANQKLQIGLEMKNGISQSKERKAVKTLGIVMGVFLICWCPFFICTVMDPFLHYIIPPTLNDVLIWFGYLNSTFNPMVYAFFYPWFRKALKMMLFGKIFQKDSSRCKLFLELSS

[19] = cells; format: functional, cell-based; remark: listed apart in the source
[20] = molecular target: T6, Trace amine-associated receptor 1; assay: Fluorescence-based cell-based high throughput dose response assay to identify agonists of the human trace amine associated receptor 1 (TAAR1).; format: functional
[21] = molecular target: Induced myeloid leukemia cell differentiation protein Mcl-1 (Homo sapiens, UniProt Q07820); format: functional
Induced myeloid leukemia cell differentiation protein Mcl-1, sequence (Q07820 whole entry): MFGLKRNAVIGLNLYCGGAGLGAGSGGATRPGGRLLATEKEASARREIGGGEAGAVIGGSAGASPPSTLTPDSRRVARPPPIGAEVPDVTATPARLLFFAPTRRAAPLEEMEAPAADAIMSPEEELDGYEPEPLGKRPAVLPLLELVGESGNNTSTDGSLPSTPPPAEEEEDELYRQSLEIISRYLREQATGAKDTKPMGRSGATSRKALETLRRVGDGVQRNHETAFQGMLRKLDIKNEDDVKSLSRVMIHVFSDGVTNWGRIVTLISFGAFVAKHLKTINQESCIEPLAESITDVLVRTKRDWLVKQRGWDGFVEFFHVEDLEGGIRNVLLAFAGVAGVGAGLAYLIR

[22] = molecular target: Trypsin (Sus scrofa, UniProt P00761); assay: porcine trypsin inhibitors, dose response, selectivity assay for Rce1 protease inhibitor project, biochemical, quenched peptide fluorescence, cherry-pick (AID 488789)
Trypsin, sequence (P00761 whole entry): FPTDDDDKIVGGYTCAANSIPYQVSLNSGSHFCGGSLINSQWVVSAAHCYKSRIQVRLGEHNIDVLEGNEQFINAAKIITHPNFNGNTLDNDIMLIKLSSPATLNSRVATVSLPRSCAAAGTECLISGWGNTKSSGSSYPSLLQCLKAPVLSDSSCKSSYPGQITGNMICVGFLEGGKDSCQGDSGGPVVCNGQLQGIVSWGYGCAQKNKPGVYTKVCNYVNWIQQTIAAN

O=C(Cc1ccc(S(=O)(=O)N2CCOCC2)s1)NCCC(c1ccccc1)c1ccccc1
IC50 [1]: 2.76 µM (active)

Cc1ccc(-c2nnc(CSc3nnc(COc4ccccc4)n3-c3ccc(C)cc3)o2)cc1
EC50 [2]: 4.75 µM (active)

CCCNC(=O)c1ccc(N2CCC3(CC2)CC(c2cccc(Br)c2)=NO3)c(NC(=O)c2ccc(Cl)c([N+](=O)[O-])c2)c1
IC50 [3]: > 80 µM (inactive)

O=C(c1ccco1)N1CCCN(Cc2nc(-c3ccc4c(c3)OCO4)no2)CC1
EC50 [4]: > 50 µM (active)

CCN1CCCC1Cn1cnc2c3cc(Cl)ccc3nc-2c1O (centres undefined)
EC50 [4]: > 50 µM (active)

CCCn1c(N2CCN(CC(=O)Nc3ccc4c(c3)OCCO4)CC2)nc2ccccc21
EC50 [2]: 3.84 µM (active)

Cc1cnc(Nc2nc3ccccc3o2)nc1C(=O)Nc1cccc(C(F)(F)F)c1
EC50 [2]: 5.15 µM (active)

O=C(CN1C(=O)c2ccccc2S1(=O)=O)c1ccc(OC(F)F)cc1
IC50 [3]: > 80 µM (inactive)

OCCN1CCN(C(c2cccs2)c2ccc3cccnc3c2O)CC1 (centres undefined)
IC50 [5]: 2.82 µM (active) | IC50 [6]: > 50 µM (not active) | IC50 [7]: > 64 µM (inactive)

O=C(O)c1ccccc1-c1ccccc1C(=O)Nc1cccc(-c2nc3ccccc3o2)c1
EC50 [8]: > 160 µM (inactive) | EC50 [9]: > 150 µM (inactive) | IC50 [1]: 16.4 µM (active) | EC50 [10]: 2.62 µM (active) | EC50 [11]: > 180 µM (inactive)

CC(C)CCNC(=O)c1cc2c(s1)-c1ccccc1S(=O)(=O)C2
EC50 [4]: > 50 µM (active)

CCOc1cccc2cc(-c3cn4cc(C)ccc4n3)c(=O)oc12
IC50 [12]: 3.82 µM (active) | IC50 [5]: > 50 µM (not active) | EC50 [13]: 1.33 µM (active) | EC50 [14]: 2.46 µM (active) | IC50 [15]: > 50 µM (not active)

Cc1cc(OCC(=O)N2CCC(C(N)=O)CC2)c2c3c(c(=O)oc2c1)CCCC3
IC50 [3]: > 80 µM (inactive)

Cc1c(CCC(=O)O)c(=O)oc2cc3occ(-c4ccc(F)cc4)c3cc12
IC50 [1]: 16.3 µM (active) | AC50 [16]: 2.68 µM (active)

CN1CCN(c2ccc(NC(=O)c3cccc(OCc4ccccc4)c3)cc2)CC1
IC50 [5]: 0.0793 µM (not active) | IC50 [17]: > 29.9 µM (inactive) | IC50 [18]: 9.06 µM (active) | EC50 [19]: > 29.9 µM (inactive) | EC50 [20]: 9.36 µM (active)

Cc1cccc(N2CCN(C(=O)CCCOc3ccccc3)CC2)c1C
EC50 [2]: 5.65 µM (active)

CCc1cc(C(=O)N=Nc2c(O)[nH]c3ccc([N+](=O)[O-])cc23)c2ccccc2n1
IC50 [21]: 6.88 µM (active)

CN1C(=O)c2ccccc2N(C)C1c1ccccc1Cl (centres undefined)
AC50 [22]: 9.6 µM (active)

CC(C)OC(=O)c1cccc(C(=O)Oc2ccc(Br)cc2)n1
EC50 [4]: > 50 µM (active)
